This passage reports IC50, EC50 and AC50 results from ChEMBL document CHEMBL1201862, “PubChem BioAssay data set” (2004).

Each structure is given as a SMILES string. The source made the active and inactive calls.

The target of test [1] is T1, Sentrin-specific protease 6 (Homo sapiens, UniProt Q9GZR1).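 Further: Luminescence-based dose-response confirmatory assay of SENP6 inhibition, following up an ultra-high-throughput screen.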
T1 sequence (Q9GZR1 whole entry): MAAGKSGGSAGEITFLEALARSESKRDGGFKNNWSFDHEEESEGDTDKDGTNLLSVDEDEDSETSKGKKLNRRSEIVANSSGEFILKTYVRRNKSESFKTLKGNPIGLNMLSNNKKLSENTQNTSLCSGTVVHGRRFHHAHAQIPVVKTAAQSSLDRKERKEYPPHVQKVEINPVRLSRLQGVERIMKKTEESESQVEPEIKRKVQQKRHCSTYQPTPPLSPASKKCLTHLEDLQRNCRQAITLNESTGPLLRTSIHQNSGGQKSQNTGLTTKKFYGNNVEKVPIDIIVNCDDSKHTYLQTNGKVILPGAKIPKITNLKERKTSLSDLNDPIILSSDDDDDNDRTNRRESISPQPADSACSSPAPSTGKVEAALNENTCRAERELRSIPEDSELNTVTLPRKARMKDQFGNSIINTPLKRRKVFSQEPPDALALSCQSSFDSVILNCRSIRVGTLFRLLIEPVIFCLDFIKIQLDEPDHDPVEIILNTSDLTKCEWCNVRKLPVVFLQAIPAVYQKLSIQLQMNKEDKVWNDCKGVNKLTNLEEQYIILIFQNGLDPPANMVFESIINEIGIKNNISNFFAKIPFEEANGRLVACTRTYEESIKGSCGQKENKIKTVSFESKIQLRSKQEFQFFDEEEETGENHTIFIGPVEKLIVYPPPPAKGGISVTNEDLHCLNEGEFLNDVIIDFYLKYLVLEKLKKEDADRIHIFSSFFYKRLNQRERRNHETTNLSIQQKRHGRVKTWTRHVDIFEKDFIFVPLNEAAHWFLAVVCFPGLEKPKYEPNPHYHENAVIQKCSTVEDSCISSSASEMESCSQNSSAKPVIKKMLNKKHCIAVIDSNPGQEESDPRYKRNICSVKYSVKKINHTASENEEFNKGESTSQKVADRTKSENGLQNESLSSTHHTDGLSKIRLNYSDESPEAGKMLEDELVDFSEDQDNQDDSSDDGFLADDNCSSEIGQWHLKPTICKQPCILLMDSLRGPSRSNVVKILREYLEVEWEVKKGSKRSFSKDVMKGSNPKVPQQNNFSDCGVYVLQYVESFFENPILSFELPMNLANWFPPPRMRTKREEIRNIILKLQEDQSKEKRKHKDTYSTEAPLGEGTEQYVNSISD
In kind it is functional.

Test [2] deals with T2, Protein RecA (Mycobacterium tuberculosis, UniProt P9WHJ3).
T2 sequence (P9WHJ3 whole entry): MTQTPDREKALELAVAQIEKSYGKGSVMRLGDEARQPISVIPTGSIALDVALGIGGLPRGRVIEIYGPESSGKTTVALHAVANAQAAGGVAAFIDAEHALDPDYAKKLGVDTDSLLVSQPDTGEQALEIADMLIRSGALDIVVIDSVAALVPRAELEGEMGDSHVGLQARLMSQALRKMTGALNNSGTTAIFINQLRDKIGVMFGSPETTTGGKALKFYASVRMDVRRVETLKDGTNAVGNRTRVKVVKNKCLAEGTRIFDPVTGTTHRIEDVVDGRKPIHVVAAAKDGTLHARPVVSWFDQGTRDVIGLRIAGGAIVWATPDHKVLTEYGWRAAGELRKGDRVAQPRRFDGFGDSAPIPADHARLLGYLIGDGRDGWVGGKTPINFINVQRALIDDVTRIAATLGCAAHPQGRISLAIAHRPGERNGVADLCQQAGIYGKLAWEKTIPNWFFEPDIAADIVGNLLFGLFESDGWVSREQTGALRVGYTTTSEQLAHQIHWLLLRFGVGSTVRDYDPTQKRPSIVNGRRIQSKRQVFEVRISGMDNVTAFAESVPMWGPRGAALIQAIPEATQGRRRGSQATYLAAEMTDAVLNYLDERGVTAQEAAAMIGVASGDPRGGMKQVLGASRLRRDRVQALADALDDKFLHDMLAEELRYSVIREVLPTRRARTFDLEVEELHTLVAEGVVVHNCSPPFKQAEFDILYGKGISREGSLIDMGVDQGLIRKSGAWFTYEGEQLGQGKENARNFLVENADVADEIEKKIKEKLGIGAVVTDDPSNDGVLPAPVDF
In words: Fluorescence Cell-Free Homogeneous Dose Retest to Identify Inhibitors of RecA-Intein Splicing Activity. [Related pubchem assays (depositor defined):AID2097, AID2223, AID489010, AID492950]. In kind it is functional.

The target in test [3] is T3, Mannose-6-phosphate isomerase (Homo sapiens, UniProt P34949).
T3 sequence (P34949 whole entry): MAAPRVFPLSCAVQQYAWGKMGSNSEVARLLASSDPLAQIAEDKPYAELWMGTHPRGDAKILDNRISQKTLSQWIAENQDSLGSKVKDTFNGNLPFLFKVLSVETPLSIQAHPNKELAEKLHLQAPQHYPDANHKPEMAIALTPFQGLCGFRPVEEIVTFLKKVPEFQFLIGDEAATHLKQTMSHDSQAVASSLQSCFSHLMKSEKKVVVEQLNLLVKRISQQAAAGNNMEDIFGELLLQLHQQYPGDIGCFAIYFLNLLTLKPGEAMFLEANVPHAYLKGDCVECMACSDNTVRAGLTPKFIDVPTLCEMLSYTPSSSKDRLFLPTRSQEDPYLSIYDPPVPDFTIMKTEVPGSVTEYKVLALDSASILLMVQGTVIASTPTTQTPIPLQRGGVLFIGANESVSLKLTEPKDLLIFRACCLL
The experiment in a line: MPI inhibition at elevated mannose 6-phosphate – biochemical, fluorescence intensity, high mannose 6-phosphate, primary screen (AID 1220).

Test [4] deals with Streptococcus sp. 'group A'. The experiment in a line: Streptococcus pyogenes SK(-)GAS viability under kanamycin – luminescence, BacTiterGlo, confirmation, counter-screen for streptokinase expression inhibitor project, dose response (AID 1900). The format is functional, organism-based. (A counterscreen serves to expose hits that act by an unwanted route or on another target.)

The test system of test [5] is Streptococcus. The experiment in a line: GAS UMAA2166 growth inhibition – luminescence, BacTiterGlo, counter-screen for streptokinase expression inhibitor project, dose response (AID 1915).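 Further: potency for reduction of bacterial viability or growth.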 The format is functional, organism-based.
Test [6] has as its target Induced myeloid leukemia cell differentiation protein Mcl-1 (Homo sapiens, UniProt Q07820). In kind it is functional.
A short description of test [7]: viability of PTEN-deleted HCT116 cells – cell-based, HCT116 PTEN knockout, dose response (AID 1047).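 Further: HCT116 colon tumor cells with PTEN knocked out; cells exposed to compound for 60 hours before readout; potency for loss of cell viability measured by luminescence.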 In kind it is functional.
The nature of test [8]: viability of HCT116 lacking mutant beta-catenin – cell-based, human colon tumor, dose response (AID 1045).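 Further: HCT116 colon tumor cells with beta catenin knocked out; cells exposed to compound for 60 hours.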 The format is functional.
Test [9] in a line: Trypanosoma cruzi growth suppression in host cells – NIH3T3 host cells, beta-gal luminescence, confirmation (AID 2044).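 Further: intracellular parasites grown in NIH/3T3 mouse fibroblasts as host cells; luminescent beta-galactosidase reporter signal from transgenic T. cruzi replicating inside host cells; inhibitors lower the luminescence signal.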 The format is functional, cell-based.
In test [10] the target is Paired box protein Pax-8 (Homo sapiens, UniProt Q06710). In words: PAX8 transcriptional activity inhibition in RMG-I – RMG-I cells, luciferase, cherry-pick, dose response (AID 687027).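 Further: luciferase reporter driven by Pax8 target thyroperoxidase promoter measured by SteadyGlo luminescence.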 In kind it is functional, cell-based.
The subject of test [11] is HEK293. The experiment in a line: EBV LMP1 TES2 canonical NF-kB signalling blockers – cell-based, HEK293, luciferase, cherry-pick, dose response (AID 588343). In kind it is functional. The following applies: Homo sapiens.
Test [12] can be described thus: Luminescence-based dose response cell-based high throughput screening assay for cytotoxic compounds using the IEC-6 intestinal epithelial cell line. [Related pubchem assays: 1858 (Summary AID.), 1825 (Counterscreen.), 1907 (Confirmation screen.)]. In kind it is functional.

Induced myeloid leukemia cell differentiation protein Mcl-1, sequence (Q07820 whole entry): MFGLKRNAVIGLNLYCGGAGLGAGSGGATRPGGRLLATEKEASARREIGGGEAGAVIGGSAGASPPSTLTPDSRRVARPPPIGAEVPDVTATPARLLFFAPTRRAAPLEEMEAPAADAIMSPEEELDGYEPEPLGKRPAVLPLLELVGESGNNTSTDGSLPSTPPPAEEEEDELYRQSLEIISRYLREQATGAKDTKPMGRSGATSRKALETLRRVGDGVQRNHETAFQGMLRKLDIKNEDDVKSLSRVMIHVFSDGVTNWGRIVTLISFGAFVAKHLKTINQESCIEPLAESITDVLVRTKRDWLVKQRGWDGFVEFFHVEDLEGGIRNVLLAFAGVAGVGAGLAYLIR
Paired box protein Pax-8, sequence (Q06710 whole entry): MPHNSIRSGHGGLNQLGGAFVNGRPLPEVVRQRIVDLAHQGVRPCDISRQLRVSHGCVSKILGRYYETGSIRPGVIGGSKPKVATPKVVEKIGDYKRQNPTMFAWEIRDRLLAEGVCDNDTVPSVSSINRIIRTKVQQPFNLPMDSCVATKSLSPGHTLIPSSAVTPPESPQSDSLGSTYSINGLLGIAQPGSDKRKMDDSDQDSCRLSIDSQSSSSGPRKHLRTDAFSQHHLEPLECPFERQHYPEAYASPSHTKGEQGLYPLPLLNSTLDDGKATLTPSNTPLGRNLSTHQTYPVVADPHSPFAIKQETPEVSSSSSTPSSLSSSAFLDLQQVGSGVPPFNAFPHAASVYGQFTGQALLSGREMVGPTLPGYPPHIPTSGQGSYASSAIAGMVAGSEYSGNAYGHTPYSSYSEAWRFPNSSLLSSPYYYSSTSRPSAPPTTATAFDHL

With `O=C(c1ccccc1)c1coc2c1C(=O)c1ccccc1C2=O`, the IC50 (as a rule, the concentration that inhibits the measured activity by half) in test [1] is 4.61 µM (active).

Consider `CCOC(=O)c1c(C)oc2c1c(/C=N/CCC(=O)O)c(O)c1ccccc12`, for which the EC50 (usually the concentration that produces a half-maximal response) in [2] is 0.39 µM (active). Moreover, the IC50 in [3] is reported as > 50 µM (not active).

With `O=[N+]([O-])c1c(NCCO)cc(Sc2nc3ccccc3s2)c2nonc12`, the EC50 is 2.73 µM (active) in test [4]; 3.39 µM (active) in [5]; 11.1 µM (active) in [7]; 0.722 µM (active) in test [2]; 10.7 µM (active) in test [8]. In addition, the IC50 in test [6] is 11.1 µM (not active).

For the compound `CC(=O)NC(c1ccc2ccccc2c1)c1ccc2cccnc2c1O` (configuration not stated), in test [9], the concentration for a half-maximal effect (EC50) is 0.306 µM (active). The figures for the half-maximal activity concentration (AC50) in [10] and in test [11] were 1.89 µM (active) and 4.18 µM (active), respectively. The concentration for half-maximal inhibition (IC50) in test [12] was 1.05 µM (active).

On to `COc1ccc2c(c1)CCC(/C=N/c1ccc3c(c1)OCO3)=C2O`, for which the 50% inhibitory concentration (IC50) was 16.7 µM (not active) in test [6], 8.46 µM (active) in [1] and 15.6 µM (active) in test [3].

For the compound `CCc1ccc(Nc2n[n+](-c3ccccc3)c(-c3c(Cl)cccc3Cl)s2)cc1`, the EC50 in [4] is 3.58 µM (active); in test [5], 10.3 µM (active); in test [9], 1.35 µM (active); in test [2] it was 9.38 µM (active). Besides, in test [11], the AC50 (usually the concentration at which the activity in the assay is half-maximal) was 47.5 µM (active).

As to `CCOC(=O)c1c(C)[nH]c2c1-c1ccccc1C(=O)C2=O`, the figures for the half-maximal effective concentration (EC50) in test [7], in [2] and in [8] were 0.487 µM (active), 1.82 µM (active) and 0.403 µM (active), respectively. Moreover, in test [10], the half-maximal activity concentration (AC50) was 1.05 µM (active). Further, the 50% inhibitory concentration (IC50) in test [12] is 0.421 µM (active).

On to `CCOC(=O)C1=C(c2ccccc2)N=C(N)NC1c1ccc(OCc2ccc(Cl)cc2)c(OC)c1` (configuration not stated), for which the EC50 in test [2] is 14.3 µM (active).
